Assay results from US5155130A, “Certain benzopyran and benzothiopyran derivatives” (Ciba-Geigy Corporation, priority 1990, dated 1992).

Assays:
5-lipoxygenase [1] = biological target: T1, 5-lipoxygenase (Cavia porcellus, UniProt A0A286X958); experiment: Inhibition of 5-HETE and LTB4 synthesis in A-23187-stimulated guinea pig polymorphonuclear leukocytes; type: cell-based; details: read-out: IC50 for inhibition of the formation of 5-HETE and leukotriene B4 (LTB4)
T1 construct: A-23187-stimulated guinea pig polymorphonuclear leukocytes; endogenous in cells; host or cells: guinea pig polymorphonuclear leukocytes
T1 sequence (A0A286X958 1-674): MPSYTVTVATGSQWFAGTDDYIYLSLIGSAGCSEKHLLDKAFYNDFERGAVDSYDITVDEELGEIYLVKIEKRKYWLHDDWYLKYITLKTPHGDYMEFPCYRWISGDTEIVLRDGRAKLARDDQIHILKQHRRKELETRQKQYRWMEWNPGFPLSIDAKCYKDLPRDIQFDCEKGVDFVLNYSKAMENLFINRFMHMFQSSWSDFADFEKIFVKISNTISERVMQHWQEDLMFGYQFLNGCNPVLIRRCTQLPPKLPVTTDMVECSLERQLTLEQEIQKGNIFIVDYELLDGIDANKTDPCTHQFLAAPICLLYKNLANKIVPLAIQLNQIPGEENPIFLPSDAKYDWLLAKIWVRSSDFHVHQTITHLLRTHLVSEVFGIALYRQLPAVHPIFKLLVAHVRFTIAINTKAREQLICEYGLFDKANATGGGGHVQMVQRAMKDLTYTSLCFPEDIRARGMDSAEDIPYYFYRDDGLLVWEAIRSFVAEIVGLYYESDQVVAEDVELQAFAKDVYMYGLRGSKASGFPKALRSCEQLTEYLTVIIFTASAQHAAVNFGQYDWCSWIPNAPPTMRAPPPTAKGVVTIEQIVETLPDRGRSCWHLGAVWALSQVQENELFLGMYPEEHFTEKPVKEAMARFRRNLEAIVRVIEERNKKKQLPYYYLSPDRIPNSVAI
Description: 5-Lipoxygenase inhibition is determined e.g. by measuring the percent inhibition of the synthesis of 5-HETE [(5S)-5-hydroxy-6,8,11,14-eicosa-tetraenoic acid] and leukotriene B4 (LTB4, 5,12-dihydroxy-6,8,10,14-eicosatetraenoic acid) in A-23187-stimulated guinea pig polymorphonuclear leukocytes, essentially according to radiometric thin-layer chromatographic assays described by Walker and Dawson (J. Pharm. Pharmacol. 31: 778, 1979) and Jakschik and Lee (Nature 287: 51, 1980) to measure the formation of 5-HETE and LTB4 -like products from ^14 C-arachidonic acid. IC50 values are determined graphically as the concentration of test compound at which the synthesis of 5-HETE and LTB4 -like products is reduced to 50% of their respective control values.

[2] = test system: rat pleurisy model of inflammation; experiment: Carrageenin-induced pleurisy model of inflammation; type: in vivo; details: 10 mg/kg p.o. at -1, 6, 24 and 45 hours relative to carrageenin injection, 48 hours after injection
Source text: 214, 74 (1980), in particular during the late phase of the corrageenin-induced pleurisy.

5-lipoxygenase [3] = experiment: Ex vivo A-23187-stimulated LTB4 formation in whole blood after oral administration; details: dog, about 0.3 mg/kg p.o.
Description: Furthermore, the inhibition of 5-lipoxygenase is determined after oral or i.v. administration to rats or dogs by measuring ex vivo in whole blood the decrease of A-23187-stimulated LTB4 formation as compared to non-treated control animals.

[4] = test system: rat chronic colitis model; experiment: Trinitrobenzenesulfonic acid-induced chronic colitis model; type: in vivo; details: 100 mg/kg p.o. for 4 days
Source text: The trinitrobenzenesulfonic acid-induced chronic colitis test in the rat, e.g. as described by Wallace et al, Gastroenterology 1989, 96, 29-36, can be used to evaluate compounds for effects indicative of utility in inflammatory bowel diseases.

Structure (SMILES)	IC50 (5-lipoxygenase [1]) [nM]	cell count of leukocytes [2]	inhibition of exudate volume [2]	inhibition of LTB4 formation as determined ex vivo (5-lipoxygenase [3])	inhibition of colitis [4]
NC(=O)N(O)CC1=Cc2cc(Oc3ccccc3)ccc2OC1 [2(d), 3-[(N-Aminocarbonyl-N-hydroxy)aminomethyl]-6-phenoxy-2H-1-benzopyran]	~50	lower	inhibition	significant inhibition	inhibits colitis
CNC(=O)N(O)CC1=Cc2cc(Oc3ccc(F)cc3)ccc2OC1 [5(f), 3-[{N-(N'-methylaminocarbonyl)-N-hydroxy}aminomethyl]-6-(p-fluorophenoxy)-2H-1-benzopyran]	–	lower	inhibition	significant inhibition	–
